Common to all, as to format: in vivo
Assay [1] deals with mice. As for the experimental part: For the treated mice, one of the two CB2 receptor-selective agonist solutions: either CB2 agonist2 solution or H-308 solution, was administered by intravenous administration to mice pups to induce ADHD-like behavior and/or obsessive-compulsive-like behavior as a murine model for ADHD and OCD. […] In order to test the effect of non-agonist or mixed-type agonist/inverse agonist CB2 receptor ligands on hyperactivity, the effects of M1 were studied.
Open-Field Test (Crossing and Rearing, Defecation, Grooming)
Mice were assessed for hyperactive behavior on postnatal days 16-20, 26-39, at age 13 weeks and at age 23 weeks. Mice were placed in the center of a transparent glass cage 30×40×31 cm divided into squares of 7.5×7.5 cm. The number of squares crossed and the rearing activity were evaluated for 8 min.

In assay [2] the test system is mice. As to the kind of experiment: Prepulse inhibition (PPI) of the startle reflex. As for the experimental part:
Attention Test: Prepulse Inhibition (PPI) of the Startle Reflex
A weak audible stimulus (74-90 dB tone) “prepulse” was used to inhibit the acoustic startle response to a subsequent strong audible stimulus (120 dB tone) “pulse”. Reduced prepulse inhibition of the startle reflex (PPI) was taken as an index of the positive symptoms of deficits in attention.
PPI was assessed similarly to the method described by Varty et al. (2001). Mice were placed in a startle chamber and allowed to acclimatize for 5 minutes A loudspeaker produced startling “pulse” at 120 dB and thereafter 65 dB background white noise or one of […] 20 ms duration “prepulses” at 74, 78, 82, 86, and 90 dB followed after 20 ms by a 40 ms startling “pulse” at 120 dB. The response of each mouse was recorded and stored by a computer. Each test session lasted for 11 minutes and consisted of 5 presentations of each of the prepulse/pulse sound stimuli (total of 30 or 35) presented in random order and separated by 15 second intervals. The magnitude of prepulse inhibition was calculated as percentage PPI=[1-(acoustic startle for prepulse+pulse)/(acoustic startle for pulse alone)]×100.

Assay [3] relates to mice. The assay can be described thus: Vocal tics, ultrasonic voice recording. As for the experimental part: Mice were recorded at the age of 13 or 23-25 weeks with an ultrasonic voice recorder (Noldus). Mice were recorded at the age of 29 days with an ultrasonic voice recorder (AviSoft). Single mice were recorded in a cage for 10 min (according to sex and type of treatment). The number and duration of events at 20-40 kHz and at 50-70 kHz were analyzed. In some experiments, 24 h following M1 treatment, each mouse was recorded for 10 min before and after stress. Stress was induced by incubation for 10-15 min in a mouse restrainer.

Assay [4] relates to mice. The assay can be described thus: Impulsivity, Elevated Plus Maze. The following applies: age 13 weeks, postnatal CB2 agonist2 5 mg/kg. As for the experimental part:
The treatment consisted of a single intravenous administration of the vehicle or the M1 solution Impulsivity was tested 24 hours after treatment.
Impulsivity as measured by the paucity of time spent on the two anxiety-provoking, open arms (as opposed to the two enclosed arms) of an “Elevated Plus Maze” was used as a parameter of negative symptoms of schizophrenia (Josselyn and Vaccarino, 1998). The plus maze was elevated 50 cm above the table top. Behavior of each mouse was recorded for 5 minutes by a video camera and scored using the “EthoVision” software (Noldus), measuring the number of entries as well as the amount of time spent in each arm, open or closed. Reduced time spent in the closed arms indicated reduced anxiety. Increased time spent in the opened arms indicated increased risk behavior (hyperactive and impulsive).
The treatment consisted of a single i.p. administration of the vehicle or the M1 solution. The duration ratio open arm/close arm and the frequency ratio open arm/close arm in the Elevated Plus Maze were evaluated 24 hours after treatment with either vehicle or M1.

Assay [5] has as its system mice. As to the kind of experiment: Motor tics in the open field test.

Structures are written as SMILES. Like-named read-outs stand apart in the source and are kept apart here.

Experimental findings from patent publication US10016373B2, “CB2 receptor ligands for the treatment of psychiatric disorders” (priority 2013, dated 2018) are described below.

Turning to `C=C1CC/C=C(\C)CC[C@@H]2[C@@H]1CC2(C)C` [CB2 agonist2, beta-caryophyllene], the grooming entry with mice [1] (CB2 agonist2 0.5 mg/kg at the age of 3-15 days, M1 5 mg/kg on day 29, measured on day 39, stressed female mice, FIG. 13A) is recorded as “increased”. Moreover, the feces secretion result in the assay with mice [1] (CB2 agonist2 0.5 mg/kg at the age of 3-15 days, M1 5 mg/kg on day 29, measured on day 39, stressed female mice, FIG. 13B) is reported as “increased”. The rearing result in the assay with mice [1] (CB2 agonist2 0.5 mg/kg at the age of 3-15 days, M1 on day 29, measured on day 36, unstressed female mice, FIG. 12A) is listed as “increased”; with mice [1] (CB2 agonist2 0.5 mg/kg at the age of 3-15 days, measured on day 26, unstressed females, FIG. 11C), “increased”; in the assay with mice [1] (model mice 5 mg/kg CB2 agonist2 postnatal days 1-5, M1 5 mg/kg single i.p. at 13 weeks, 30 minutes after treatment, FIG. 5B), “increase”; in the assay on mice [1] (open field test at postnatal days 16-19, 5 mg/kg CB2 agonist2 at postnatal days 5-13, FIG. 1B), “increased”; with mice [1] (open field test at postnatal days 16-19, 10 mg/kg CB2 agonist2 at postnatal days 5-13, FIG. 1D), “increased”. The ambulation result with mice [1] (CB2 agonist2 0.5 mg/kg at the age of 3-15 days, M1 on day 29, measured on day 39, stressed female mice, FIG. 12B) was “increased”; in the assay with mice [1] (CB2 agonist2 0.5 mg/kg at the age of 3-15 days, measured on day 26, unstressed females, FIG. 11A) it was “increased”; in the assay with mice [1] (model mice 5 mg/kg CB2 agonist2 postnatal days 1-5, M1 5 mg/kg single i.p. at 13 weeks, 30 minutes after treatment, FIG. 5A), “increase”; with mice [1] (open field test at postnatal days 16-19, 5 mg/kg CB2 agonist2 at postnatal days 5-13, FIG. 1A), “increased”; in the assay with mice [1] (open field test at postnatal days 16-19, 10 mg/kg CB2 agonist2 at postnatal days 5-13, FIG. 1C), “increased”. Besides, the secretion of feces result in the assay on mice [1] (model mice 5 mg/kg CB2 agonist2 postnatal days 5-13, M1 5 mg/kg single i.p. at 23 weeks, FIG. 4C) was “decreased”. Further, the grooming duration entry in the assay on mice [1] (model mice 5 mg/kg CB2 agonist2 postnatal days 5-13, M1 5 mg/kg single i.p. at 23 weeks, tested 48 hours after treatment, FIG. 4A) is given as “increased”. In addition, the grooming frequency result in the assay with mice [1] (model mice 5 mg/kg CB2 agonist2 postnatal days 5-13, M1 5 mg/kg single i.p. at 23 weeks, tested 48 hours after treatment, FIG. 4B) is “increased”. In the assay with mice [2] (female mice treated with CB2 agonist2 at postnatal days 5-13, FIG. 3B), the percent pre-pulse inhibition entry was “decreased”. The acoustic startle result in the assay with mice [2] (model mice vs control mice at the age of 8 weeks, FIG. 3A) is listed as “not significantly different”. Moreover, the “number of vocal events” value in the assay on mice [3] (20-40 KHz, day 29, female mice, CB2 agonist2 0.5 mg/kg at the age of 3-15 days, M1 5 mg/kg on day 29, FIG. 14A) is given as “increased”; with mice [3] (female mice 23-25 weeks, 20-40 KHz, stress, CB2 agonist2 5 mg/kg postnatal days 5-13, M1 given to model mice, FIG. 7A), “increased”; in the assay on mice [3] (female mice 23-25 weeks, 50-70 KHz, stress, CB2 agonist2 5 mg/kg postnatal days 5-13, M1 given to model mice, FIG. 8A) it was “increased”. For the same molecule, the duration of vocals entry in the assay with mice [3] (20-40 KHz, day 29, female mice, CB2 agonist2 0.5 mg/kg at the age of 3-15 days, M1 5 mg/kg on day 29, FIG. 14B) is given as “increased”. The “total duration of vocal events” value with mice [3] (female mice 23-25 weeks, 20-40 KHz, stress, CB2 agonist2 5 mg/kg postnatal days 5-13, M1 given to model mice, FIG. 7B) was “increased”; in the assay on mice [3] (female mice 23-25 weeks, 50-70 KHz, stress, CB2 agonist2 5 mg/kg postnatal days 5-13, M1 given to model mice, FIG. 8B), “increased”; with mice [3] (male mice 23-25 weeks, 20-40 KHz, before stress, CB2 agonist2 5 mg/kg postnatal days 5-13, M1 given to model mice, FIG. 9A) it was “increased”; with mice [3] (male mice 23-25 weeks, 50-70 KHz, before stress, CB2 agonist2 5 mg/kg postnatal days 5-13, M1 given to model mice, FIG. 10A), “increased”. In addition, the “mean duration of vocal events” value with mice [3] (female mice 23-25 weeks, 20-40 KHz, stress, CB2 agonist2 5 mg/kg postnatal days 5-13, M1 given to model mice, FIG. 7C) is given as “increased”; in the assay on mice [3] (female mice 23-25 weeks, 50-70 KHz, stress, CB2 agonist2 5 mg/kg postnatal days 5-13, M1 given to model mice, FIG. 8C) it was “increased”; with mice [3] (male mice 23-25 weeks, 20-40 KHz, before stress, CB2 agonist2 5 mg/kg postnatal days 5-13, M1 given to model mice, FIG. 9B) it was “increased”; in the assay on mice [3] (male mice 23-25 weeks, 50-70 KHz, before stress, CB2 agonist2 5 mg/kg postnatal days 5-13, M1 given to model mice, FIG. 10B) it was “increased”. The “ratio of duration in the open arm/close arm” value in the assay on mice [4] (females, FIG. 6A) is “increased”; with mice [4] (males+females, FIG. 6B), “increased”.

Consider `CCCCCCC(C)(C)c1cc(OC)c([C@@H]2C=C(CO)[C@@H]3C[C@H]2C3(C)C)c(OC)c1` [HU-308, [(1R,2R,5R)-2-[2,6-dimethoxy-4-(2-methyloctan-2-yl)phenyl]-7,7-dimethyl-4-bicyclo[3.1.1]hept-3-enyl]methanol], for which the hyperactivity result in the assay on mice [1] (age of 3 months, 0.1 mg/kg HU-308, M1 5 mg/kg in gavage 30 minutes before the experiment, FIGS. 17A-B) is reported as “induced”. The ambulation result with mice [1] (open field test at postnatal days 16-19, 5 mg/kg HU-308 at postnatal days 5-13, FIG. 2A) is given as “increased”. Moreover, the rearing entry in the assay with mice [1] (open field test at postnatal days 16-19, 5 mg/kg HU-308 at postnatal days 5-13, FIG. 2B) is “increased”. Moreover, the “abnormal motor tics/head twitches” value with mice [5] (HU-308 5 mg/kg during postnatal days 5-13, age of 12 weeks, open field test) is “induced”. Moreover, the “Number of tics, Total” value in the assay with mice [5] (HU-308 5 mg/kg postnatal days 5-13, age 12 weeks, total over the recording) was determined as 18. For the same molecule, the percent pre-pulse inhibition result in the assay on mice [2] (female mice injected with HU-308 at postnatal days 5-13, FIG. 3D) is given as “decreased”; in the assay on mice [2] (male mice injected with HU-308 at postnatal days 5-13, FIG. 3C), “decreased”.
